Measured values reported in patent publication US20250064941A1, “SIGLEC LIGANDS, CONJUGATES, AND METHODS OF USE THEREOF” (Osprey Biopharmaceuticals, Inc., priority 2023, published 2025).
pKd: −log10 of the molar value.

Legend:
[1] = molecular target: T1, mouse Siglec-2-Fc-Avi (CD22) (Mus musculus, UniProt P35329); assay: SPR binding affinity to mouse CD22; conditions: steady-state analysis
T1 construct: made in house
T1 sequence (P35329 22-708 limits assumed): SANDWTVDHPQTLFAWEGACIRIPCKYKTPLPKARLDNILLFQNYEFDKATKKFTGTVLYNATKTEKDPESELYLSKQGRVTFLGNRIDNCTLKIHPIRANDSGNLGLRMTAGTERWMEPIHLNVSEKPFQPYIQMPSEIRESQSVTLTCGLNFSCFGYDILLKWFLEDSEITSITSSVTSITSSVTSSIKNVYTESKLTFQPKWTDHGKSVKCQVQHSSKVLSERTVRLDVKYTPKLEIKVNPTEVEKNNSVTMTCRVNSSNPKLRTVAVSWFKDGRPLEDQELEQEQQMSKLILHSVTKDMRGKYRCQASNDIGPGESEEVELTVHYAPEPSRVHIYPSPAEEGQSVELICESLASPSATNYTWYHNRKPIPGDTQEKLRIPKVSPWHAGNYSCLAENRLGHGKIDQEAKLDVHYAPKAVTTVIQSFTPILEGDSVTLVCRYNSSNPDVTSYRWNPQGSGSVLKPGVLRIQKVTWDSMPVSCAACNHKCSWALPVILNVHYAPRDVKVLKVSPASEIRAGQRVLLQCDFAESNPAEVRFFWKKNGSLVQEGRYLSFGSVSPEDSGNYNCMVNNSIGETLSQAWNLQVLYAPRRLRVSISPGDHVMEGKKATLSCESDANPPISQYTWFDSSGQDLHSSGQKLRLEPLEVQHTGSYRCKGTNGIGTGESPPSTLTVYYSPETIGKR
Method in brief: (§1)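 SialoExo pretreatment, 4 h 37° C.; biotinylated CD22 on SA chip, Biacore 8K. Buffer 10 mM HEPES, 150 mM NaCl, 0.05% Tween-20, pH 7.5, 1% DMSO. Dissociation 120 s; solvent-corrected; steady-state KD.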

[2] = molecular target: T2, human Siglec-2/CD22 protein (Homo sapiens, UniProt P20273); assay: SPR binding affinity to human CD22; conditions: steady-state analysis
T2 construct: purchased Acro Biosystems SI2-H82E3
T2 sequence (P20273 20-847): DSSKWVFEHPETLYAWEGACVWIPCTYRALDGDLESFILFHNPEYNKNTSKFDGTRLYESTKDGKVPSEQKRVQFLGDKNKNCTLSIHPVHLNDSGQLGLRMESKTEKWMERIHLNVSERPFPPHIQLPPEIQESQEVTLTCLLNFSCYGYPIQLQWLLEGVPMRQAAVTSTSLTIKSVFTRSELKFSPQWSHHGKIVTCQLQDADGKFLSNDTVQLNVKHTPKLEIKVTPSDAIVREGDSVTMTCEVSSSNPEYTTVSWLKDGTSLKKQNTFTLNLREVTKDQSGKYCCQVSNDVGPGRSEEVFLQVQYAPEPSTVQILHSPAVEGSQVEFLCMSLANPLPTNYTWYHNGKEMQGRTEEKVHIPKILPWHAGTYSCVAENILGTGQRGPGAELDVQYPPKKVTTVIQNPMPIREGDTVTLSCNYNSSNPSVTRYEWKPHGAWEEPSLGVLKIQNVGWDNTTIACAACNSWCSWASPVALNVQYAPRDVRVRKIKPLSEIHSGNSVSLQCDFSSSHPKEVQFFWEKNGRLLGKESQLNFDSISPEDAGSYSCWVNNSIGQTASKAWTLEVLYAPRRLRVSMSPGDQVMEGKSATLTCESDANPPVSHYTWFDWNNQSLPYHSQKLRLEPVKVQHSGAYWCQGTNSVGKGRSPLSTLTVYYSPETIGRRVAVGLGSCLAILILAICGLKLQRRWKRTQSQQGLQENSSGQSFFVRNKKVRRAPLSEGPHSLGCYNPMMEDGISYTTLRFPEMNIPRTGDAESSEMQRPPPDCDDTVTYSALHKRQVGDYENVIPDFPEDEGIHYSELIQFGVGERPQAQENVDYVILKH
Method in brief: as §1

[3] = molecular target: cynomolgus Siglec-2/CD22 (Macaca fascicularis, UniProt A0A2K5WCZ6); assay: biochemical; format: binding; conditions: SPR, steady-state analysis; read-out: Affinity cyno CD22
Method in brief: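 SPR with desialylated (SialoExo, 4 h, 37° C.) cynomolgus CD22 amine-coupled to a CM5 chip. Running buffer 10 mM HEPES, 150 mM NaCl, 0.05% Tween-20, pH 7.5, 1% DMSO, with solvent correction; 120 s dissociation. Affinities from steady-state analysis.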

Chain of cynomolgus Siglec-2/CD22 (A0A2K5WCZ6 entry or part of it): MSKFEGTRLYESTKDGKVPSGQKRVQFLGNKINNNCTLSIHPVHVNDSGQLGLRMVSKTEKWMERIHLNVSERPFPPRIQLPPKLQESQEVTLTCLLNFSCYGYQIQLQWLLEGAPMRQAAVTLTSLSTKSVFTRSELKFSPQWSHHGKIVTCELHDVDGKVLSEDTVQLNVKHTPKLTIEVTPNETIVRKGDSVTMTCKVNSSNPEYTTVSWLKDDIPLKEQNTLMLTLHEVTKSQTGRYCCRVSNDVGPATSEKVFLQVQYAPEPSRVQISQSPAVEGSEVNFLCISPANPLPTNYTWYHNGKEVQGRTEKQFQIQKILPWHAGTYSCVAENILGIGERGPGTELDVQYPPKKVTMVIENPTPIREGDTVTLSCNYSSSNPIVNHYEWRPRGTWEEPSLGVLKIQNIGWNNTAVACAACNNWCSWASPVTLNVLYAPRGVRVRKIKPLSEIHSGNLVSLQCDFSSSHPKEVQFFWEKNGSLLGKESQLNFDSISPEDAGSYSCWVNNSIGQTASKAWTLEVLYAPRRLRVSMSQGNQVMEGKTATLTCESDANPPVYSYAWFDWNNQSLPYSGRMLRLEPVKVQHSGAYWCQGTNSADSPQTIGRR

Row | pKd [1] | pKd [2] | pKd [3] | SMILES
1 | < 5.00 | 5.00 to 6.00 | < 5.00 | C#CCCOc1ccc(CO[C@]2(C(=O)O)C[C@H](O)[C@@H](NC(=O)CO)[C@H]([C@H](O)[C@H](O)CNC(=O)Cc3ccc4[nH]c(=O)[nH]c4c3)O2)cc1 [Compound 7, (2R,4S,5R,6R)-2-((4-(but-3-yn-1-yloxy)benzyl)oxy)-6-((1R,2R)-1,2-dihydroxy-3-(2-(2-oxo-2,3-dihydro-1H-benzo[d]imidazol-5-yl)acetamido)propyl)-4-hydroxy-5-(2-hydroxyacetamido)tetrahydro-2H-pyran-2-carboxylic acid]
2 | 5.00 to 6.00 | > 6.00 | > 6.00 | C#CCCOc1ccc(CS[C@]2(C(=O)O)C[C@H](O)[C@@H](NC(=O)CO)[C@H]([C@H](O)[C@H](O)CNC(=O)Cc3cccc(Cl)c3)O2)cc1 [Compound 120, (2S,4S,5R,6R)-2-((4-(but-3-yn-1-yloxy)benzyl)thio)-6-((1R,2R)-3-(2-(3-chlorophenyl)acetamido)-1,2-dihydroxypropyl)-4-hydroxy-5-(2-hydroxyacetamido)tetrahydro-2H-pyran-2-carboxylic acid]
3 | < 5.00 | > 6.00 | 5.00 to 6.00 | O=C(Cc1ccc(-c2ccc(O)cc2)cc1)NC[C@@H](O)[C@@H](O)[C@@H]1O[C@](C(=O)O)(n2cc(-c3ccccc3O)nn2)C[C@H](O)[C@H]1NC(=O)CO [Compound 54, (2R,4S,5R,6R)-6-((1R,2R)-1,2-dihydroxy-3-(2-(4′-hydroxy-[1,1′-biphenyl]-4-yl)acetamido)propyl)-4-hydroxy-5-(2-hydroxyacetamido)-2-(4-(2-hydroxyphenyl)-1H-1,2,3-triazol-1-yl)tetrahydro-2H-pyran-2-carboxylic acid]
4 | 5.00 to 6.00 | 5.00 to 6.00 | 5.00 to 6.00 | C#CCOCCOCCO[C@]1(C(=O)O)C[C@H](O)[C@@H](NC(=O)CO)[C@H]([C@H](O)[C@H](O)CNC(=O)Cc2ccc(Cl)cc2)O1 [Compound 126, (2R,4S,5R,6R)-6-((1R,2R)-3-(2-(4-chlorophenyl)acetamido)-1,2-dihydroxypropyl)-4-hydroxy-5-(2-hydroxyacetamido)-2-(2-(2-(prop-2-yn-1-yloxy)ethoxy)ethoxy)tetrahydro-2H-pyran-2-carboxylic acid]
5 | 5.00 to 6.00 | > 6.00 | > 6.00 | C#CCOCCCCCCO[C@]1(C(=O)O)C[C@H](O)[C@@H](NC(=O)CO)[C@H]([C@H](O)[C@H](O)CNC(=O)Cc2ccc3[nH]ccc3c2)O1 [Compound 6, (2R,4S,5R,6R)-6-((1R,2R)-3-(2-(1H-indol-5-yl)acetamido)-1,2-dihydroxypropyl)-4-hydroxy-5-(2-hydroxyacetamido)-2-((6-(prop-2-yn-1-yloxy)hexyl)oxy)tetrahydro-2H-pyran-2-carboxylic acid]
6 | 5.00 to 6.00 | 5.00 to 6.00 | 5.00 to 6.00 | CC(=O)NCCOCCOCCOCCOCCC(=O)NCCOCCOCCO[C@]1(C(=O)O)C[C@H](O)[C@@H](NC(=O)CO)[C@H]([C@H](O)[C@H](O)CNC(=O)Cc2ccc(-c3ccccc3)cc2)O1 [Compound 236, (2R,4S,5R,6R)-6-((1R,2R)-3-(2-([1,1′-biphenyl]-4-yl)acetamido)-1,2-dihydroxypropyl)-2-((2,18-dioxo-6,9,12,15,22,25-hexaoxa-3,19-diazaheptacosan-27-yl)oxy)-4-hydroxy-5-(2-hydroxyacetamido) tetrahydro-2H-pyran-2-carboxylic acid]
7 | 5.00 to 6.00 | 5.00 to 6.00 | > 6.00 | C#CCOCCCCCCO[C@]1(C(=O)O)C[C@H](O)[C@@H](NC(=O)C(C)O)[C@H]([C@H](O)[C@H](O)CNC(=O)Cc2ccc(Cl)cc2)O1 (stereo partly drawn) [Compound 183, (2R,4S,5R,6R)-6-((1R,2R)-3-(2-(4-chlorophenyl)acetamido)-1,2-dihydroxypropyl)-4-hydroxy-5-(2-hydroxypropanamido)-2-((6-(prop-2-yn-1-yloxy)hexyl)oxy)tetrahydro-2H-pyran-2-carboxylic acid]
